# Structures can show the parent of a compound that is named as a salt. Where two headings read alike, the source gives them in different places.
# Columns and labels:
# [1] = test system: NCI-H292 lung cancer cells; test: FDA drug screening, complete media vs cholesterol-free media without statin (TABLE 1); assay type: cell-based, human
# [2] = test system: NCI-H292 lung cancer cells; test: FDA drug screening, complete media vs cholesterol-free media with simvastatin (TABLE 2); assay type: cell-based, human
# [3] = Complete minus Cholesterol-free, >0 enhanced anti-cancer activity, about 0 neutral, <0 antagonist
# [4] = NCI-H292 cells, cholesterol-free media without statin
# [5] = NCI-H292 cells, drug in cholesterol-free media with simvastatin 0.04 μM
# [6] = NCI-H292 cells, drug in complete media
# [7] = complete media vs cholesterol-free media + simvastatin (0.04 μM), >0 enhanced anti-cancer activity, about 0 neutral, <0 antagonist
# [8] = NCI-H292 cells, cholesterol-free media without statin, FDA drug library screen
# [9] = NCI-H292 cells, complete media, FDA drug library screen
# [10] = complete vs cholesterol-free media, >0 enhanced anti-cancer activity, about 0 neutral, <0 antagonist
# [11] = NCI-H292 cells, cholesterol-free media with simvastatin 0.04 μM, cell growth value in FDA drug screen
# [12] = NCI-H292 cells, complete media, cell growth value in FDA drug screen
# [13] = complete media minus cholesterol-free media + simvastatin, >0 enhanced anti-cancer activity, about 0 neutral, <0 antagonist
# [14] = Complete minus Cholesterol-free, greater than 0 enhanced anti-cancer activity, about 0 neutral, below 0 antagonists
# [15] = NCI-H292 cells in cholesterol-free media without statin
# [16] = NCI-H292 cells in complete media
# [17] = NCI-H292 cells, cholesterol-free media with simvastatin 0.04 μM, FDA drug library screen (TABLE 2)
# [18] = NCI-H292 cells, complete media, FDA drug library screen (TABLE 2)
# [19] = complete media minus cholesterol-free media + simvastatin (0.04 μM), >0 enhanced anti-cancer activity, about 0 neutral, <0 antagonist
# [20] = Complete minus Cholesterol-free, […]
# [21] = NCI-H292 cells, FDA drug library screen, cholesterol-free media without statin
# [22] = NCI-H292 cells, FDA library drug in cholesterol-free media with simvastatin 0.04 μM
# [23] = NCI-H292 cells, FDA library drug in complete media
# [24] = complete vs cholesterol-free media, greater than 0 enhanced anti-cancer activity, about 0 neutral, below 0 antagonists
# [25] = NCI-H292 cells, FDA drug library screen, cholesterol-free media with simvastatin 0.04 μM
# [26] = NCI-H292 cells, FDA drug library screen, complete media
# [27] = complete media minus cholesterol-free media + simvastatin, […]
compound,measurement,setting,value
c1cnc2cc3c(cc2n1)[C@@H]1CNC[C@H]3C1 [Varenicline (Hydrochloride)],Difference,[1]; [3],−0.20
same,Cholesterol-free,[1]; [4],1.095
same,Complete,"[1]; NCI-H292 cells, complete media",0.8911
same,Cholesterol-free media + simvastatin (0.04 μM),[2]; [5],1.193
same,Complete Media,[2]; [6],0.9876
same,Difference,[2]; [7],−0.21
COCC1=C(C(=O)OC(C)OC(=O)OC(C)C)N2C(=O)[C@@H](NC(=O)/C(=N\OC)c3csc(N)n3)[C@H]2SC1 (stereo partly drawn) [Cefpodoxime Proxetil],Cholesterol-free,[1]; [8],1.085
same,Complete,[1]; [9],1.311
same,Difference,[1]; [10],0.23
same,Cholesterol-free media + simvastatin (0.04 μM),[2]; [11],1.112
same,Complete Media,[2]; [12],1.162
same,Difference,[2]; [13],0.05
C[C@H]1O[C@@H](n2cc(F)c(=O)[nH]c2=O)[C@H](O)[C@@H]1O [Doxifluridine],Difference,[1]; [14],−0.49
same,Cholesterol-free,[1]; [15],1.329
same,Complete,[1]; [16],0.8392
same,Cholesterol-free media + simvastatin (0.04 μM),[2]; [17],1.085
same,Complete Media,[2]; [18],1.031
same,Difference,[2]; [19],−0.05
CC(C)C[C@@H](N)C(=O)N[C@H]1C(=O)N[C@@H](CC(N)=O)C(=O)N[C@H]2C(=O)N[C@H]3C(=O)N[C@H](C(=O)N[C@H](C(=O)O)c4cc(O)cc(O)c4-c4cc3ccc4O)[C@H](O)c3ccc(c(Cl)c3)Oc3cc2cc(c3O[C@@H]2O[C@H](CO)[C@@H](O)[C@H](O)[C@H]2O[C@H]2C[C@](C)(N)[C@H](O)[C@H](C)O2)Oc2ccc(cc2Cl)[C@H]1O.Cl [Norvancomycin (hydrochloride)],Difference,[1]; [20],−0.07
same,Cholesterol-free,[1]; [21],1.244
same,Cholesterol-free media + simvastatin (0.04 μM),[2]; [22],1.335
same,Complete Media,[2]; [23],0.8954
same,Difference,"[2]; complete media vs cholesterol-free media + simvastatin (0.04 μM), […]",−0.44
CCCCC1C(=O)N(c2ccccc2)N(c2ccccc2)C1=O [Phenylbutazone],Difference,[1]; [3],−0.26
same,Cholesterol-free,[1]; [4],1.376
same,Complete,"[1]; NCI-H292 cells, complete media",1.114
same,Cholesterol-free media + simvastatin (0.04 μM),[2]; [11],1.076
same,Difference,[2]; [13],0.07
Nc1ccncc1N [Amifampridine],Cholesterol-free,[1]; [4],1.476
same,Complete,"[1]; NCI-H292 cells, complete media",1.141
same,Difference,[1]; [24],−0.33
same,Cholesterol-free media + simvastatin (0.04 μM),[2]; [5],1.299
same,Complete Media,[2]; [6],1.071
same,Difference,[2]; [7],−0.23
C[C@H](CCC(=O)O)[C@H]1CC[C@H]2[C@@H]3CC[C@@H]4C[C@H](O)CC[C@]4(C)[C@H]3C[C@H](O)[C@]12C [Deoxycholic acid],Difference,[1]; [14],−0.65
same,Cholesterol-free,[1]; [15],1.683
same,Complete,[1]; [16],1.028
same,Cholesterol-free media + simvastatin (0.04 μM),[2]; [22],1.379
same,Complete Media,[2]; [23],0.931
same,Difference,[2]; [7],−0.45
CC(=O)OC[C@H]1O[C@@H]([S-])[C@H](OC(C)=O)[C@@H](OC(C)=O)[C@@H]1OC(C)=O.CCP(CC)CC.[Au+] [Auranofin],Difference,[1]; [20],0.01
same,Cholesterol-free,[1]; [8],−0.008527
same,Complete,[1]; [9],0.0049
same,Cholesterol-free media + simvastatin (0.04 μM),[2]; [17],0.01251
same,Complete Media,[2]; [18],0.0008313
same,Difference,"[2]; complete media minus cholesterol-free media + simvastatin (0.04 μM), […]",−0.01
N#Cc1ccc(C2CCCc3cncn32)cc1 (stereo not drawn) [Fadrozole hydrochloride],Cholesterol-free,[1],1.643
same,Complete,[1],1.101
same,Difference,[1],−0.54
same,Cholesterol-free media + simvastatin (0.04 μM),[2],0.9854
same,Complete Media,[2],0.9477
same,Difference,[2],−0.04
CCCCC(CC)COC(=O)CC(C(=O)OCC(CC)CCCC)S(=O)(=O)O (stereo not drawn) [Docusate (Sodium)],Cholesterol-free,[1]; [4],1.285
same,Complete,"[1]; NCI-H292 cells, complete media",0.839
same,Difference,[1]; [24],−0.45
same,Cholesterol-free media + simvastatin (0.04 μM),[2]; [5],1.08
same,Complete Media,[2]; [6],0.9061
same,Difference,[2]; [7],−0.17
OC(c1cc(C(F)(F)F)nc2c(C(F)(F)F)cccc12)C1CCCCN1 (stereo not drawn) [Mefloquine (hydrochloride)],Difference,[1]; [14],−0.49
same,Cholesterol-free,[1]; [15],1.439
same,Complete,[1]; [16],0.9523
same,Cholesterol-free media + simvastatin (0.04 μM),[2]; [25],1.137
same,Complete Media,[2]; [26],1.057
same,Difference,[2]; [7],−0.08
Oc1cccc(-c2c3nc(c(-c4cccc(O)c4)c4ccc([nH]4)c(-c4cccc(O)c4)c4nc(c(-c5cccc(O)c5)c5ccc2[nH]5)CC4)C=C3)c1 [Temoporfin],Difference,"[1]; Complete minus Cholesterol-free, greater than 0 enhanced anti-cancer activity, about 0 neutral, below 0 antagonist",−0.10
same,Cholesterol-free,[1]; [21],0.848
same,Complete,[1]; [26],0.7514
same,Cholesterol-free media + simvastatin (0.04 μM),[2]; [25],0.6286
same,Complete Media,[2]; [26],0.9208
same,Difference,[2]; [13],0.29
Cc1cccc(Nc2ccccc2C(=O)O)c1C [Mefenamic acid],Difference,[1]; [14],−0.58
same,Cholesterol-free,[1]; [15],2.136
same,Complete,[1]; [16],1.551
same,Cholesterol-free media + simvastatin (0.04 μM),[2]; [25],1.014
same,Complete Media,[2]; [26],0.8951
same,Difference,[2]; [7],−0.12
Lasofoxifene (Tartrate),Cholesterol-free,[1]; [4],1.19
same,Complete,"[1]; NCI-H292 cells, complete media",0.7569
same,Difference,"[1]; complete vs cholesterol-free media, […]",−0.43
same,Cholesterol-free media + simvastatin (0.04 μM),[2]; [25],0.6494
same,Complete Media,[2]; [26],0.9428
same,Difference,[2]; [27],0.29
C=C[C@@H]1C[C@]1(NC(=O)[C@@H]1C[C@@H]2CN1C(=O)[C@H](C(C)(C)C)NC(=O)O[C@@H]1C[C@H]1CCCCCc1nc3ccc(OC)cc3nc1O2)C(=O)[N-]S(=O)(=O)C1CC1.[K+] [Grazoprevir potassium salt],Difference,[1]; [20],−0.06
same,Cholesterol-free,[1]; [8],1.089
same,Complete,[1]; [9],1.03
same,Cholesterol-free media + simvastatin (0.04 μM),[2]; [25],1.46
same,Complete Media,[2]; [26],1.827
same,Difference,[2]; [27],0.37
CCC1(c2ccccc2)C(=O)NCNC1=O [Primidone],Difference,[1]; [14],−0.48
same,Cholesterol-free,[1]; [15],1.462
same,Complete,[1]; [16],0.9788
same,Cholesterol-free media + simvastatin (0.04 μM),[2]; [25],0.9863
same,Complete Media,[2]; [26],0.8914
same,Difference,[2]; [7],−0.09
CN(C)CC/C=C1/c2ccccc2Sc2ccc(Cl)cc21 [Chlorprothixene],Cholesterol-free,[1]; [4],1.606
same,Complete,"[1]; NCI-H292 cells, complete media",1.176
same,Difference,[1]; [24],−0.43
same,Cholesterol-free media + simvastatin (0.04 μM),[2]; [25],2.022
same,Difference,[2]; [19],−0.96
Cc1cccc(N(C)C(=S)Oc2ccc3ccccc3c2)c1 [Tolnaftate],Difference,[1]; [14],−0.53
same,Cholesterol-free,[1]; [15],1.723
same,Complete,[1]; [16],1.191
same,Cholesterol-free media + simvastatin (0.04 μM),[2]; [5],1.419
same,Complete Media,[2]; [6],1.24
same,Difference,[2]; [7],−0.18
CCOC(=O)[C@H](CCc1ccccc1)N[C@@H](C)C(=O)N1[C@H](C(=O)O)C[C@@H]2CCC[C@@H]21 [Ramipril],Difference,[1]; [3],−0.24
same,Cholesterol-free,[1]; [4],1.132
same,Complete,"[1]; NCI-H292 cells, complete media",0.8936
same,Cholesterol-free media + simvastatin (0.04 μM),[2]; [17],1.055
same,Complete Media,[2]; [18],0.9941
same,Difference,[2]; [19],−0.06
Nc1ccc(S(N)(=O)=O)cc1 [Sulfanilamide],Cholesterol-free,[1]; [4],1.317
same,Complete,"[1]; NCI-H292 cells, complete media",1.005
same,Difference,[1]; [24],−0.31
same,Cholesterol-free media + simvastatin (0.04 μM),[2]; [22],1.221
same,Complete Media,[2]; [23],0.9133
same,Difference,[2]; [7],−0.31
CC/C(=C(/CC)c1ccc(O)cc1)c1ccc(O)cc1 [Diethylstilbestrol],Cholesterol-free,[1]; [8],0.5644
same,Complete,[1]; [9],0.9798
same,Difference,[1]; [10],0.42
same,Cholesterol-free media + simvastatin (0.04 μM),[2]; [11],0.993
same,Complete Media,[2]; [12],1.095
same,Difference,[2]; [13],0.10
